Results as given in patent US7858322B2, “Method of determining inhibition of binding to TRPM7 protein” (NoNo, Inc., priority 2003, dated 2010).
Residues, ends and D or L forms follow the SMILES beside them. No end group written: not given here. *: point of attachment. Biotin = O=C1N[C@H]2[C@H](CS[C@H]2CCCCC(=O)*)N1

Experiments:
INADL d3 [1] = molecular target: T1, INADL d3 (Homo sapiens, UniProt Q8NI35); assay: G3 assay, binding of biotinylated peptide to GST-PDZ fusion; details: G3 titration
T1 construct: made in house; host or cells: E. coli (DH5α, BL21 or JM109)
T1 sequence (Q8NI35 with tags, fused parts or gaps): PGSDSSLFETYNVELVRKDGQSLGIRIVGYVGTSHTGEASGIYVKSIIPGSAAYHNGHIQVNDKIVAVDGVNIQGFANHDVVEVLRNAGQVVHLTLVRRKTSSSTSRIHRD
Protocol: (§1) The G3 assay is identical to the G0 assay with the following exceptions. The peptides are typically present at 0.1 μM rather than 20 μM. The peptides are also pre-incubated with the HRP-streptavidin prior to adding to the assay plate. In the G0 assay, free peptide is incubated with the PDZ proteins prior to the addition of the HRP-streptavidin. Thus, for the G0 assay one can lose signal if the bound peptide dissociates from the PDZ protein prior to the addition of the HRP-streptavidin. In the G3 modified assay the HRP-streptavidin/peptide complex is added to the plate in one step, thus increasing the likelihood that all the bound peptide will be bound to HRP-streptavidin. The G3 modified assay increases the chance of observing weak interaactions.
(§2) Reagents and Supplies • Nunc MaxiSorp 96 well Immuno-plate, Nunc • PBS pH 7.4 (phosphate buffered saline, 8 g NaCl, 0.29 g KCl, 1.44 g Na2HPO4, 0.24 g KH2PO4, add H2O to 1 liter and pH 7.4; 0.2 μm filter) • Assay Buffer: 2% BSA in PBS (20 g of bovine serum albumin per liter PBS, fraction V, ICN Biomedicals, cat#IC15142983 • Goat anti-GST polyclonal Ab, stock 5 mg/ml, stored at 4° C., Amersham Pharmacia cat#27-4577-01 • Dilute 1:1000 in PBS, final concentration 5 μg/ml. • HRP-Streptavidin, 2.5 mg/2 ml stock stored at 4° C., Zymed cat#43-4323, dilute 1:2000 into Assay buffer, final concentration of 0.5 μg/ml • Wash Buffer, PBS • Biotinylated peptides (HPLC purified, stock solution stored in −20° C. freezer) • GST-PRISM proteins (stock stored at −80° C., after 1st thaw store in −10° C. freezer) • TMB (3,3′,5,5′, teramethylbensidine), tablets, Sigma cat.#T5525 • Per plate, dissolve 1 tablet in 1 ml DMSO, add 9 ml Citrate/Phosphate buffer pH 5.4 and 2 μL H2O2 • 0.18M H2SO4, Sigma cat.#S 1526 • 12-w multichannel pipettor & tips • 50 ml reagent reservoirs, Costar#4870 • 50, 15 ml polypropylene conical tubes • Costar Transtar 96 Costar #7605 • Transtar 96 Cartridge Costar #7610 • Molecular Devices microplate reader (450 & 650 nm filters) with SoftMax Pro software • When using reagents stored at or 4° C. or −20° C., remove & keep on ice
(§3) Protocol • 1. Coat plate with 100 μl of 5 μg/ml anti-GST, overnight at 4° C. • 2. Dump contents of plate & out tap dry on paper towels • 3. Block with 200 μl Assay Buffer for 2 hrs at room temperature • 4. Prepare proteins at 5 μg/ml in Assay Buffer • 5. Wash 3× with cold PBS (4° C.), avoiding letting the plates dry out • 6. Add proteins at 50 μl per well, incubate 1 to 2 hrs at 4° C. • 7. Prepare peptides to desired concentration in Assay Buffer • 8. Wash 3× with cold PBS (4° C.), avoiding letting the plates dry out • 9. Add HRP-Streptavidin/peptide complex [prepared by incubating for 20 minutes at room temperature HRP-Streptavidin (1:2000) with the desired biotin-peptide concentration for 20 minutes at room temperature] at 50 μl per well on ice • 10. Place at room temperature for exactly 30 minutes • 11. Promptly wash 5× with PBS at room temperature • 12. Add 100 μl/well TMB substrate (write time on plate) • 13. Incubate in dark at room temperature for a maximum of 30 minutes • 14. Read plate at 25 minutes (650 nm), optional • 15. Stop reaction with 100 μl of 0.18 M H2SO4, 30 minutes after adding TMB Take last reading at 450 nm soon after stopping reaction
(§4) The G3 assay was performed using 0.1 μM peptide representing 11 amino acids of Tat fused to the final 9 amino acids of TRPM7 ([…]; SEQ ID NO:258).
(§5) The G3 assay was performed on a subset of the PDZ domains as in Example II except that the concentration of peptide was 0.002 μM, […], 0.1 μM, 0.2 μM, 1 μM, and 2 μM.
(§6) to calculate the EC50 for the binding of the peptides to the PDZ domains.
(§7) FIGS. 10A and 10B show graphs of the titrations for the Peptide #1829 with ZO-1 d2 and for the Peptide #1839 with INADL d3.

ZO-1 d2 [2] = molecular target: T2, ZO-1 d2 (Homo sapiens, UniProt Q07157, DEL264-264); assay: as above; details: G3 titration
T2 construct: made in house; host or cells: E. coli (DH5α, BL21 or JM109)
T2 sequence (Q07157 with tags, fused parts or gaps DEL264-264): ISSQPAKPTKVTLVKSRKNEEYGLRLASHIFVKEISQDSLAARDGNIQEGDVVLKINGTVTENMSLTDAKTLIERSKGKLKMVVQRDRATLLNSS
Protocol: as §1, §2, §3, §4, §5, §6, §7

INADL d3 [3] = molecular target: T1, INADL d3; assay: G assays, titrations or binding assays of peptides; details: peptide demonstrated to bind INADL d3 in G assays
Protocol: (§8) In one aspect, the invention provides an assay in which a GST/PDZ fusion protein is immobilized on a surface (G assay). […] In a preferred embodiment, the assay is carried out as follows:
(§9) (1) A PDZ-domain polypeptide is bound to a surface, e.g. a protein binding surface. In a preferred embodiment, a GST/PDZ fusion protein containing one or more PDZ domains is bound to a polystyrene 96-well plate. […] In one embodiment, the GST/PDZ fusion protein is bound via an anti-GST antibody that is coated onto the 96-well plate. Adequate binding to the plate can be achieved when: • a. 100 μl per well of 5 μg/ml goat anti-GST polyclonal antibody (Pierce) in PBS is added to a polystyrene 96-well plate (e.g., Nunc Polysorp) at 4° C. for 12 hours. • b. The plate is blocked by addition of 200 μl per well of PBS/BSA for 2 hours at 4° C. • c. The plate is washed 3 times with PBS. • d. 50 μl per well of 5 μg/ml GST/PDZ fusion protein) or, as a negative control, GST polypeptide alone (i.e. not a fusion protein) in PBS/BSA is added to the plate for 2 hours at 4° C. • e. the plate is again washed 3 times with PBS.
(§10) (2) Biotinylated PL peptides are allowed to react with the surface by addition of 50 μl per well of 20 μM solution of the biotinylated peptide in PBS/BSA for 10 minutes at 4° C., followed by an additional 20 minute incubation at 25° C. The plate is washed 3 times with ice cold PBS.
(§11) (3) The binding of the biotinylated peptide to the GST/PDZ fusion protein surface can be detected using a variety of methods and detectors known to one of skill in the art. In one embodiment, 100 μl per well of 0.5 μg/ml streptavidin-horseradish peroxidase (HRP) conjugate dissolved in BSA/PBS is added and allowed to react for 20 minutes at 4° C. The plate is then washed 5 times with 50 mM Tris pH 8.0 containing 0.2% Tween 20, and developed by addition of 100 μl per well of HRP-substrate solution (TMB, Dako) for 20 minutes at room temperature (RT). The reaction of the HRP and its substrate is terminated by addition of 100 μl per well of 1 M sulfuric acid, and the optical density (O.D.) of each well of the plate is read at 450 um.
(§12) (4) Specific binding of a PL peptide and a PDZ domain polypeptide is determined by comparing the signal from the well(s) in which the PL peptide and PDZ domain polypeptide are combined, with the background signal(s). […] Typically a specific or selective reaction will be at least twice background signal, more typically more than 5 times background, and most typically 10 or more times the background signal. […] Correspondingly, a statistical test (e.g. a T-test) comparing repeated measurements of the signal with repeated measurements of the background will result in a p-value <0.05, more typically a p-value <0.01, and most typically a p-value <0.001 or less. As noted, in an embodiment of the G assay, the signal from binding of a given PL peptide to immobilized (surface bound) GST polypeptide alone is one suitable negative control (sometimes referred to as B1). Because all measurement are done in multiples (i.e. at least duplicate) the arithmetic mean (or, equivalently, average.) of several measurements is used in determining the binding, and the standard error of the mean is used in determining the probable error in the measurement of the binding. The standard error of the mean of N measurements equals the square root of the following: the sum of the squares of the difference between each measurement and the mean, divided by the product of (N) and (N−1). Thus, in one embodiment, specific binding of the PDZ protein to the platebound peptide is determined by comparing the mean signal (“mean S”) and standard error of the signal (“SE”) for a particular PL-PDZ combination with the mean B1.

RIM2 d1 = molecular target: T3, RIM2 d1 (Homo sapiens, UniProt Q9UQ26); assay: G assays, titrations or binding assays of peptides; details: peptide demonstrated to bind RIM2 d1 in G assays
T3 construct: made in house; host or cells: E. coli (DH5α, BL21 or JM109)
T3 sequence (Q9UQ26 632-757): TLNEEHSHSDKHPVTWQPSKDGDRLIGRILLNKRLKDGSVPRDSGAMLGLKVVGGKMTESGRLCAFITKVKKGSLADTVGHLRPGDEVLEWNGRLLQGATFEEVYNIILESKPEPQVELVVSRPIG
Protocol: as §8, §9, §10, §11, §12

ZO-1 d2 [4] = molecular target: T2, ZO-1 d2; assay: G assays, titrations or binding assays of peptides; details: peptide demonstrated to bind ZO-1 d2 in G assays
Protocol: as §8, §9, §10, §11, §12

[5] = system: cultured cortical neurons; assay: Oxygen glucose deprivation (OGD) neuronal cell death; format: cell-based; details: FIG. 7
Protocol: The fraction of dead cells was determining by dividing the number of neurons expressing GFP which became stained with propidium iodide 20 h after OGD by the number of neurons expressing GFP at the beginning of the experiment. Data for each culture was obtained from counting cells in 3 high power microscope fields per experiment.

Molecule | ODmax (450 nm) (INADL d3 [1]) | ODmax (450 nm) (ZO-1 d2 [2]) | POZ domain bound (INADL d3 [3]) | POZ domain bound (RIM2 d1) | POZ domain bound (ZO-1 d2 [4]) | Survival of neurons in prolonged OGD [5]
C[C@H](NC(=O)[C@H](Cc1c[nH]c2ccccc12)NC(=O)[C@H](Cc1ccc(O)cc1)NC(=O)[C@H](CCCCN)NC(=O)[C@H](CCCNC(=N)N)NC(=O)[C@H](CC(=O)O)NC(=O)[C@@H](NC(=O)[C@H](CCCNC(=N)N)NC(=O)[C@H](CO)NC(=O)[C@H](CCCNC(=N)N)NC(=O)[C@H](CCCNC(=N)N)NC(=O)[C@H](CCCNC(=N)N)NC(=O)[C@H](CCC(N)=O)NC(=O)[C@H](CCCNC(=N)N)NC(=O)[C@H](CCCNC(=N)N)NC(=O)[C@H](CCCCN)NC(=O)[C@H](CCCCN)NC(=O)[C@H](CCCNC(=N)N)NC(=O)CNC(=O)[C@H](Cc1ccc(O)cc1)NC(=O)CCCC[C@@H]1SC[C@@H]2NC(=O)N[C@@H]21)[C@@H](C)O)C(=O)O [Peptide 1832] (Biotin-YGRKKRRQRRRSRTDRKYWA-OH; C-terminus assumed) | 0.60 | 2.10 | INADL D3 | RIM2 D1 | ZO-1 D2 | –
[Gd+3] [Gd^3+] | – | – | – | – | – | can permit survival of neurons destined to die from prolonged OGD
CC[C@H](C)[C@H](NC(=O)[C@@H](NC(=O)[C@H](CCCNC(=N)N)NC(=O)[C@H](CC(=O)O)NC(=O)[C@H](CO)NC(=O)[C@H](CCCNC(=N)N)NC(=O)[C@H](C)NC(=O)[C@H](CCCNC(=N)N)NC(=O)[C@H](CCCNC(=N)N)NC(=O)[C@H](CCCNC(=N)N)NC(=O)[C@H](CCC(N)=O)NC(=O)[C@H](CCCNC(=N)N)NC(=O)[C@H](CCCNC(=N)N)NC(=O)[C@H](CCCCN)NC(=O)[C@H](CCCCN)NC(=O)[C@H](CCCNC(=N)N)NC(=O)CNC(=O)[C@H](Cc1ccc(O)cc1)NC(=O)CCCC[C@@H]1SC[C@@H]2NC(=O)N[C@@H]21)[C@@H](C)O)C(=O)N[C@@H](Cc1c[nH]c2ccccc12)C(=O)N[C@@H](C)C(=O)O [Peptide 1829] (Biotin-YGRKKRRQRRRARSDRTIWA-OH; C-terminus assumed) | 1.40 | 2.90 | INADL D3 | RIM2 D1 | ZO-1 D2 | –
CC(C)[C@H](NC(=O)[C@H](Cc1ccc(O)cc1)NC(=O)[C@H](Cc1ccc(O)cc1)NC(=O)[C@H](CCC(=O)O)NC(=O)[C@H](CCCCN)NC(=O)[C@H](CC(=O)O)NC(=O)[C@H](CCCCN)NC(=O)[C@H](CC(N)=O)NC(=O)[C@H](CCCCN)NC(=O)[C@H](CCCNC(=N)N)NC(=O)[C@H](CCCNC(=N)N)NC(=O)[C@H](CCCNC(=N)N)NC(=O)[C@H](CCC(N)=O)NC(=O)[C@H](CCCNC(=N)N)NC(=O)[C@H](CCCNC(=N)N)NC(=O)[C@H](CCCCN)NC(=O)[C@H](CCCCN)NC(=O)[C@H](CCCNC(=N)N)NC(=O)CNC(=O)[C@H](Cc1ccc(O)cc1)NC(=O)CCCC[C@@H]1SC[C@@H]2NC(=O)N[C@@H]21)C(=O)O [Peptide 1852] (Biotin-YGRKKRRQRRRKNKDKEYYV-OH; C-terminus assumed) | 2.40 | 2.60 | – | RIM2 D1 | ZO-1 D2 | –
CC(C)C[C@H](NC(=O)[C@H](CO)NC(=O)[C@@H](NC(=O)[C@H](CC(C)C)NC(=O)[C@H](CCCNC(=N)N)NC(=O)[C@H](CC(=O)O)NC(=O)CNC(=O)[C@H](CCCNC(=N)N)NC(=O)[C@H](C)NC(=O)[C@H](CCCNC(=N)N)NC(=O)[C@H](CCCNC(=N)N)NC(=O)[C@H](CCCNC(=N)N)NC(=O)[C@H](CCC(N)=O)NC(=O)[C@H](CCCNC(=N)N)NC(=O)[C@H](CCCNC(=N)N)NC(=O)[C@H](CCCCN)NC(=O)[C@H](CCCCN)NC(=O)[C@H](CCCNC(=N)N)NC(=O)CNC(=O)[C@H](Cc1ccc(O)cc1)NC(=O)CCCC[C@@H]1SC[C@@H]2NC(=O)N[C@@H]21)C(C)C)C(=O)O [Peptide 1843] (Biotin-YGRKKRRQRRRARGDRLVSL-OH; C-terminus assumed) | 1.20 | 2.20 | – | RIM2 D1 | ZO-1 D2 | –
Biotin-YGRKKRRQRRRSRTDRLEYV [Peptide 1846] | 1.50 | – | – | RIM2 D1 | – | –
CC[C@H](C)[C@H](NC(=O)[C@H](CCC(N)=O)NC(=O)[C@H](Cc1ccc(O)cc1)NC(=O)[C@H](CCCCN)NC(=O)[C@H](CCCNC(=N)N)NC(=O)[C@H](CC(=O)O)NC(=O)[C@@H](NC(=O)[C@H](CCCNC(=N)N)NC(=O)[C@H](CO)NC(=O)[C@H](CCCNC(=N)N)NC(=O)[C@H](CCCNC(=N)N)NC(=O)[C@H](CCCNC(=N)N)NC(=O)[C@H](CCC(N)=O)NC(=O)[C@H](CCCNC(=N)N)NC(=O)[C@H](CCCNC(=N)N)NC(=O)[C@H](CCCCN)NC(=O)[C@H](CCCCN)NC(=O)[C@H](CCCNC(=N)N)NC(=O)CNC(=O)[C@H](Cc1ccc(O)cc1)NC(=O)CCCC[C@@H]1SC[C@@H]2NC(=O)N[C@@H]21)[C@@H](C)O)C(=O)O [Peptide 1839] (Biotin-YGRKKRRQRRRSRTDRKYQI-OH; C-terminus assumed) | 1.60 | 2.50 | INADL D3 | RIM2 D1 | – | –
CC[C@H](C)[C@H](NC(=O)[C@H](CC(C)C)NC(=O)[C@H](CCCNC(=N)N)NC(=O)[C@H](CCCNC(=N)N)NC(=O)[C@H](CCC(=O)O)NC(=O)[C@H](CC(=O)O)NC(=O)[C@H](CCC(N)=O)NC(=O)[C@H](CCCNC(=N)N)NC(=O)[C@H](CCCNC(=N)N)NC(=O)[C@H](CCCNC(=N)N)NC(=O)[C@H](CCC(N)=O)NC(=O)[C@H](CCCNC(=N)N)NC(=O)[C@H](CCCNC(=N)N)NC(=O)[C@H](CCCCN)NC(=O)[C@H](CCCCN)NC(=O)[C@H](CCCNC(=N)N)NC(=O)CNC(=O)[C@H](Cc1ccc(O)cc1)NC(=O)CCCC[C@@H]1SC[C@@H]2NC(=O)N[C@@H]21)C(=O)N[C@H](C(=O)N[C@@H](CC(C)C)C(=O)O)C(C)C [Peptide 1842] (Biotin-YGRKKRRQRRRQDERRLIVL-OH) | 1.90 | 2.30 | – | RIM2 D1 | ZO-1 D2 | –
